Assay results taken from US20250145715A1, “B7-H3 TARGETING FUSION PROTEINS AND METHODS OF USE THEREOF” (GT Biopharma, Inc., priority 2021, published 2025).

Columns and labels:
Format in all cases: cell-based, human
[1] = test system: LNCaP prostate cancer cells; assay: NK cell CD107a / IFNγ flow cytometry against LNCaP; conditions: normal donor and prostate cancer patient NK cells, vs controls
From the text: FIG. 15A is a graph showing pooled analysis of proportion of NK cells from healthy donors or prostate cancer patients expressing CD107a+ (top) or IFNγ (bottom) against C4-2 targets (N=9 for healthy donors, N=3 for patients). FIG. 15B is a graph showing pooled analysis of proportion of NK cells from healthy donors or prostate cancer patients expressing CD107a+ (top) or IFNγ (bottom) against DU145 targets (N=9 for healthy donors, N=3 for patients). FIG. 15C is a graph showing pooled analysis of proportion of NK cells from healthy donors or prostate cancer patients expressing CD107a+ (top) or IFNγ (bottom) against LNCaP targets (N=9 for healthy donors, N=3 for patients). FIG. 15D is a graph showing pooled analysis of proportion of NK cells from healthy donors or prostate cancer patients expressing CD107a+ (top) or IFNγ (bottom) against PC3 targets (N=9 for healthy donors, N=3 for patients). * p<0.05, ** p<0.01, *** p<0.001, and **** p<0.0001.
ADCC was measured in a flow cytometry assay by evaluating degranulation via CD107a (lysosomal-associated membrane protein LAMP-1) and intracellular IFNγ production. Upon thawing, normal donor and patient-derived PBMCs or ascites cells were rested overnight (37° C., 5% CO2) in RPMI 1640 media supplemented with 10% fetal calf serum (RPMI-10). […] Samples were washed and evaluated in an LSRII flow cytometer (BD Biosciences, San Jose, CA, USA). […]

MM1S cells = assay: IncuCyte Zoom NK cell killing of MM1S; conditions: E:T 2:1 and 4:1
From the text: (§1) FIGS. 7A-7B illustrate the ability of peripheral blood NK cells with or without B7-H3-TriKE to kill myeloma cells in live imaging IncuCyte Zoom assays. FIG. 7A is a graph showing the effects with effector:target (E:T) ratios of 2:1 and 4:1 on MM1S cells. FIG. 7B is a graph showing the effects with effector:target (E:T) ratios of 2:1 and 4:1 on U266 cells.
as §1, with “8A-8D” for “7A-7B”, “8A is a graph showing the effects with effector:target (E:T) ratios of 2:1 and 4:1 on H929 cells. FIG. 8B” for “7A”, “8C is a graph showing the effects with effector:target (E:T) ratios of 2:1 and 4:1 on RPMI-8226 cells. FIG. 8D” for “7B”
FIGS. 9A-9D illustrate the efficacy of B7-H3-TriKE with the proteasome inhibitor bortezomib (10 nM) and the immunomodulatory drug lenalidomide (5 μM). FIG. 9A is a graph showing the effect of the combination therapy on H929 cells after 48 hours. FIG. 9B is a graph showing the effect of the combination therapy on RPMI-8226 cells after 48 hours. FIG. 9C is a graph showing the effect of the combination therapy on MM1S cells after 48 hours. FIG. 9D is a graph showing the effect of the combination therapy on U266 cells after 48 hours.
The ability of peripheral blood NK cells with or without B7-H3-TriKE to kill myeloma cells was compared in live imaging IncuCyte Zoom assays with escalating doses of TriKE. Maximal killing occurred with 3 nM concentration.
The efficacy of B7-H3-TriKE with the proteasome inhibitor bortezomib (10 nM) and the immunomodulatory drug lenalidomide (5 μM) was also tested. Cytotoxicity curves were compared by repeated measures ANOVA and performed in triplicate.

[2] = test system: HNSCC cell lines (Cal27 trio, Cal33 trio); assay: NK cell CD107a / IFN-γ flow cytometry against HNSCC lines
Procedure: FIGS. 27A-27D illustrate the functional validation of B7-H3 TriKE. FIG. 27A is a graph illustrating CD107a expression in PBMCs from healthy donors incubated with Cal27 trio. FIG. 27B is a graph illustrating intracellular IFN-γ production in PBMCs from healthy donors incubated with Cal27 trio. FIG. 27C is a graph illustrating CD107a expression in PBMCs from healthy donors incubated with Cal33 trio. FIG. 27D is a graph illustrating intracellular IFN-γ production in PBMCs from healthy donors incubated with Cal33 trio.
NK cell responses against HNSCC lines in the presence of the B7-H3 TriKE were assessed through either flow cytometry based functional assays, to evaluate NK cell degranulation and cytokine secretion, or IncuCyte imaging assays, to directly assess target killing. NK cell degranulation and IFN-gamma production of B7-H3 TriKE-treated samples were higher compared to that of control samples treated with B7-H3 single domain or IL-15 alone. […] Ongoing experiments will evaluate the functionality and efficacy of the B7-H3 TriKE in vivo.
Frozen PBMCs (N=3) from healthy donors were incubated for 5 hours with (A-B) Cal27 trio and […] Cal33 trio (each trio consisting of a HNSCC WT line and 2 clones of HNSCC FANCA KO lines) in different treatments: no treatment or 3 nM IL-15, MOPC, B7-H3 SD and B7-H3TriKE to evaluate CD107a expression (as a marker for degranulation) and intracellular IFN-γ production. Error bars indicate standard error of mean, and statistical significance was determined as *p<0.05, **p<0.01, ***p<0.001 and ****p<0.0001

[3] = vs B7-H3 single domain or IL-15 alone

Substance | NK cell IFNγ production against LNCaP [1] | NK cell degranulation (CD107a) against LNCaP [1] | NK cell killing of MM1S (MM1S cells) | NK cell activity (CD107a, IFN-γ) against HNSCC ([2]; 3 nM, 5 hours, Cal27 trio and Cal33 trio, healthy donor PBMCs) | NK cell IFN-gamma production against HNSCC [2, 3] | NK cell degranulation against HNSCC [2, 3]
cam1615B7-H3: second-generation TriKE: humanized camelid anti-CD16 VHH, human wild-type IL-15, anti-B7-H3 mAb 376.96 scFv; SEQ ID NO:1 | enhanced | enhanced | – | – | – | –
B7-H3 TriKE: camelid nanobodies targeting CD16 and B7-H3 joined by IL-15 and two linkers; sequence table equates the name with cam1615B7-H3 | – | – | significantly enhanced killing | induced NK cell activity against HNSCC | higher | higher
